Data: patent publication US20230139445A1, “BACTERIAL CELLS WITH IMPROVED TOLERANCE TO DIACIDS” (priority 2016, published 2023)
Values joined by “and” are separate entries in the source; they are usually repeats but may differ in a detail not shown here. Equal values may be shown once.

Key:
Assay type in all cases: cell-based
[1] = tested on: Escherichia coli K-12 MG1655 knockout mutants; assay: Growth Profiler growth screening of K-12 MG1655 single, double and triple knockout mutants in glutaric or adipic acid
[2] = tested on: Escherichia coli K-12 MG1655; assay: Screening for tolerance in wild-type cells: growth in varying concentrations of neutralized diacid, Biolector; details: for tlag (lag time), mean / μ (growth rate), mean: neutralized with sodium hydroxide; for maximum measured concentration at which exponentially growing K-12 MG1655 can grow: neutralized diacid in M9+1% glucose
Experimental: Escherichia coli K-12 MG1655 was grown overnight in M9 minimal medium+1% glucose and subcultured the following morning to an initial OD600 of 0.05 in M9+1% glucose. Cells were grown to mid-exponential phase (OD600 0.7-1.0) and were back-diluted with fresh medium to an OD600 of 0.7. The diluted cells were used to inoculate M9+1% glucose containing varying concentrations of glutaric acid or adipic acid which were neutralized to pH 7.0 with sodium hydroxide, and growth was measured in FlowerPlates in a Biolector microbioreactor system (m2p-labs) at 37° C. with 1000 rpm shaking. The culture volume in each well was 1.4 mL.

[3] = tested on: Escherichia coli K-12 MG1655 knockout mutants; assay: Growth Profiler growth screening of K-12 MG1655 single, double and triple knockout mutants in glutaric or adipic acid; remark: listed apart in the source
Experimental: Five colonies from wild-type K-12 MG1655 and 10 individual colonies deriving from each population were inoculated into 300 μL M9+1% glucose in 96 well deepwell plates and incubated in a 300 rpm plate shaker at 37° C. The next day, cells were diluted 10× in M9+1% glucose and 30 μL was transferred into clear-bottomed 96 well half-deepwell plates (with rectangular wells) containing M9+1% glucose and M9+1% glucose+52.78 g/L glutaric acid or 55.56 g/L adipic acid, such that the final concentration of glutaric acid or adipic acid was 47.5 g/L or 50 g/L, respectively. In addition, cryogenic glycerol stocks of the overnight culture were saved in a 96 well plate format. Half deepwell plates were incubated at 37° C. with 225 rpm shaking in a Growth Profiler (Enzyscreen), with optical scans of the plates taken at 15 minute intervals. Green pixel values integrated over a 1 mm diameter circular area in each well were converted to OD600 values using a previously determined calibration between OD600 and green pixel values. […] In general, it was attempted to select three isolates per population for further analysis, and all populations were represented in the resequenced isolates.
Selected isolates from the primary screen were restruck onto LB agar from the cryogenic stock made from the overnight culture plate for the primary screen. Five K-12 MG1655 colonies and three individual colonies from each isolate were inoculated as biological replicates into a new 96 well deepwell plate containing 300 μL of M9+1% glucose, and grown overnight as for the primary screen. The next day, a cryogenic stock and half deepwell plates containing M9+1% glucose with or without glutaric acid or adipic acid were inoculated using the plate of overnight cultures, and growth was measured as described for the primary screen.
Probable important losses-of-function were determined by identifying genes across all isolates that harboured mutations, especially those occurring in multiple populations, and by the presence of at least one mutation that either generated a premature stop codon, a frameshift mutation, or the presence of an insertion element sequence within the gene. For those genes, the corresponding knockout strain from the Keio collection of single knockout mutants (where each gene is replaced with a cassette consisting of a kanamycin resistance gene flanked by FRT sites) was used as a donor strain for P1vir phage transduction. Briefly, the Keio strain was grown to early exponential phase in LB+5 mM CaCl2 and 80 μL of a P1vir stock raised on K-12 MG1655 was added. After significant lysis was observed after 1.5 to 2 hours, the lysate was filter-sterilized to remove cells and stored at 4° C. Strain K-12 MG1655 was grown overnight in LB+5 mM CaCl2) and 100 μL of the overnight culture was mixed with 100 μL of the P1vir lysate of the Keio collection mutant, and the mixture was incubated at 37° C. without shaking for 20 minutes. The entire mixture was then plated on LB agar containing 1.25 mM sodium pyrophosphate as a chelating agent and 25 μg/mL kanamycin. One colony was then restruck on LB+1.25 mM […]+25 μg/mL kanamycin plate and analyzed for presence of the Keio cassette in place of the wild-type gene by colony PCR. When further knockouts were constructed in the same strain, the Keio cassette was flipped out to generate a scar sequence such that Kan^R marker could be recycled. […]

[4] = strain MG1655, M9 + 23.8 g/L glutarate (neutralized)
[5] = strain MG1655, M9 + 47.5 g/L glutarate (neutralized)
[6] = strain MG1655 kgtP::kan, M9 + 23.8 g/L glutarate (neutralized)
[7] = strain MG1655 kgtP::kan, M9 + 47.5 g/L glutarate (neutralized)
[8] = strain MG1655 ΔkgtP nagC::kan, M9 + 23.8 g/L glutarate (neutralized)
[9] = strain MG1655 ΔkgtP nagC::kan, M9 + 47.5 g/L glutarate (neutralized)
[10] = strain MG1655 ΔkgtP proV::kan, M9 + 23.8 g/L glutarate (neutralized)
[11] = strain MG1655 ΔkgtP proV::kan, M9 + 47.5 g/L glutarate (neutralized)
[12] = strain MG1655 ΔkgtP rnb::kan, M9 + 23.8 g/L glutarate (neutralized)
[13] = strain MG1655 ΔkgtP rnb::kan, M9 + 47.5 g/L glutarate (neutralized)
[14] = strain MG1655 ΔkgtP sspA::kan, M9 + 23.8 g/L glutarate (neutralized)
[15] = strain MG1655 ΔkgtP sspA::kan, M9 + 47.5 g/L glutarate (neutralized)
[16] = strain MG1655 ΔkgtP ΔproV nagC::kan, M9 + 23.8 g/L glutarate (neutralized)
[17] = strain MG1655 ΔkgtP ΔproV nagC::kan, M9 + 47.5 g/L glutarate (neutralized)
[18] = strain MG1655, M9 + 25 g/L adipate (neutralized)
[19] = strain MG1655, M9 + 50 g/L adipate (neutralized)
[20] = strain MG1655 kgtP::kan, M9 + 25 g/L adipate (neutralized)
[21] = strain MG1655 kgtP::kan, M9 + 50 g/L adipate (neutralized)
[22] = strain MG1655 ΔkgtP proV::kan, M9 + 25 g/L adipate (neutralized)
[23] = strain MG1655 ΔkgtP pstS::kan, M9 + 25 g/L adipate (neutralized)
[24] = strain MG1655 ΔkgtP pstS::kan, M9 + 50 g/L adipate (neutralized)
[25] = strain MG1655 ΔkgtP sspA::kan, M9 + 25 g/L adipate (neutralized)
[26] = strain MG1655 ΔkgtP sspA::kan, M9 + 50 g/L adipate (neutralized)
[27] = strain MG1655 ΔkgtP ΔproV nagC::kan, M9 + 25 g/L adipate (neutralized)
[28] = strain MG1655 ΔkgtP ΔproV nagC::kan, M9 + 50 g/L adipate (neutralized)
[29] = strain MG1655 ΔkgtP proV::kan, M9 + 50 g/L adipate (neutralized)

In the case of `O=C(O)CCCC(=O)O` [glutaric acid], the “mean growth rate μ” value [1, 4] was 0.466 h⁻¹, the “mean lag time tlag” value [1, 4] was 7.4 h and the “mean growth rate μ” value [1, 5] was 0.101 h⁻¹. The “mean lag time tlag” value [1, 5] was 21.8 h, the “mean growth rate μ” value [1, 6] was 0.487 h⁻¹ and the “mean lag time tlag” value [1, 6] was 6.1 h. The “mean growth rate μ” value [1, 7] was 0.191 h⁻¹, the “mean lag time tlag” value [1, 7] was 13.5 h and the “mean growth rate μ” value [1, 8] was 0.491 h⁻¹. For the same compound, the “mean lag time tlag” value [1, 8] was 6.7 h, the “mean growth rate μ” value [1, 9] was 0.179 h⁻¹ and the “mean lag time tlag” value [1, 9] was 15.0 h. For the same compound, the “mean growth rate μ” value [1, 10] was 0.520 h⁻¹, the “mean lag time tlag” value [1, 10] was 6.2 h and the “mean growth rate μ” value [1, 11] was 0.251 h⁻¹. The “mean growth rate μ” value [1, 12] was 0.505 h⁻¹, the “mean lag time tlag” value [1, 12] was 6.3 h and the “mean growth rate μ” value [1, 13] was 0.183 h⁻¹. For the same compound, the “mean lag time tlag” value [1, 13] was 13.6 h, the “mean growth rate μ” value [1, 14] was 0.473 h⁻¹ and the “mean lag time tlag” value [1, 14] was 6.1 h. The “mean lag time tlag” value [1, 15] was 12.2 h, the “mean growth rate μ” value [1, 16] was 0.541 h⁻¹ and the “mean lag time tlag” value [1, 16] was 6.6 h. The “mean growth rate μ” value [1, 17] was 0.215 h⁻¹, the “mean lag time tlag” value [1, 17] was 14.0 h and the “tlag (lag time), mean” value ([2]; 10 g/L) was 2.0 h. For the same compound, the “μ (growth rate), mean” value ([2]; 10 g/L, M9+1% glucose, 37° C) was 0.526 h⁻¹, the “tlag (lag time), mean” value ([2]; 20 g/L) was 1.9 h and the “μ (growth rate), mean” value ([2]; 20 g/L) was 0.377 h⁻¹. The “tlag (lag time), mean” value ([2]; 30 g/L) was 0.6 h, the “μ (growth rate), mean” value ([2]; 30 g/L) was 0.234 h⁻¹ and the “tlag (lag time), mean” value ([2]; 40 g/L) was 0.7 h. For the same compound, the “μ (growth rate), mean” value ([2]; 40 g/L) was 0.132 h⁻¹, the “tlag (lag time), mean” value ([2]; 50 g/L) was 15.9 h and the “μ (growth rate), mean” value ([2]; 50 g/L) was 0.096 h⁻¹. The “μ (growth rate), mean” value ([2]; 75 g/L) was 0.000 h⁻¹, the “maximum measured concentration at which exponentially growing K-12 MG1655 can grow” value [2] was 50 g/L and the “mean lag time tlag” value [3, 11] was 13.0 h. For the same compound, the “mean growth rate μ” value [3, 15] was 0.225 h⁻¹.
With `O=C(O)CCCCC(=O)O` [adipic acid] the “mean growth rate μ” value [1, 18] was 0.467 h⁻¹, the “mean lag time tlag” value [1, 18] was 6.9 h and the “mean growth rate μ” value [1, 19] was 0.115 h⁻¹. For the same compound, the “mean lag time tlag” value [1, 19] was 25.7 h, the “mean growth rate μ” value [1, 20] was 0.534 h⁻¹ and the “mean lag time tlag” value [1, 20] was 6.4 h. For the same compound, the “mean growth rate μ” value [1, 21] was 0.192 h⁻¹, the “mean lag time tlag” value [1, 21] was 17.5 h and the “mean growth rate μ” value [1, 22] was 0.583 h⁻¹. The “mean lag time tlag” value [1, 22] was 6.2 h, the “mean growth rate μ” value [1, 23] was 0.465 h⁻¹ and the “mean lag time tlag” value [1, 23] was 7.6 h. For the same compound, the “mean growth rate μ” value [1, 24] was 0.139 h⁻¹, the “mean lag time tlag” value [1, 24] was 21.3 h and the “mean growth rate μ” value [1, 25] was 0.525 h⁻¹. For the same compound, the “mean lag time tlag” value [1, 25] was 6.8 h, the “mean lag time tlag” value [1, 26] was 49.2 h and the “mean growth rate μ” value [1, 27] was 0.501 h⁻¹. The “mean lag time tlag” value [1, 27] was 6.8 h, the “mean growth rate μ” value [1, 28] was 0.213 h⁻¹ and the “mean lag time tlag” value [1, 28] was 19.7 h. The “tlag (lag time), mean” value ([2]; 10 g/L) was 1.0 h, the “μ (growth rate), mean” value ([2]; 10 g/L, M9+1% glucose, 37° C) was 0.575 h⁻¹ and the “tlag (lag time), mean” value ([2]; 20 g/L) was 1.3 h. For the same compound, the “μ (growth rate), mean” value ([2]; 20 g/L) was 0.494 h⁻¹, the “tlag (lag time), mean” value ([2]; 30 g/L) was 1.8 h and the “μ (growth rate), mean” value ([2]; 30 g/L) was 0.367 h⁻¹. For the same compound, the “tlag (lag time), mean” value ([2]; 40 g/L) was 4.0 h, the “μ (growth rate), mean” value ([2]; 40 g/L) was 0.263 h⁻¹ and the “tlag (lag time), mean” value ([2]; 50 g/L) was 2.4 h. The “μ (growth rate), mean” value ([2]; 50 g/L) was 0.120 h⁻¹, the “tlag (lag time), mean” value ([2]; 75 g/L) was 27 h and 27.2 h and the “μ (growth rate), mean” value ([2]; 75 g/L) was 0.203 h⁻¹. For the same compound, the “μ (growth rate), mean” value ([2]; 100 g/L) was 0.000 h⁻¹, the “maximum measured concentration at which exponentially growing K-12 MG1655 can grow” value [2] was 75 g/L and the “mean growth rate μ” value [3, 29] was 0.264 h⁻¹. For the same compound, the “mean lag time tlag” value [3, 29] was 16.5 h and the “mean growth rate μ” value [3, 26] was 0.117 h⁻¹.
